Assay results: US20250276955A1, “CORONAVIRUS MAIN PROTEASE INHIBITORS AND METHODS USING SAME” (Baylor College of Medicine, priority 2021, published 2025)
≈ marks a conversion by molar mass, not a printed value. Where two headings read alike, the source gives them in different places.

Legend:
SARS-COV-2 M^pro-His6 = SARS-COV-2 M^pro-His6 (Severe acute respiratory syndrome coronavirus 2, UniProt P0DTD1); experiment: biochemical; type: biochemical
[1] = target: SARS-COV-2 M^pro (authentic N- and C-termini) (Severe acute respiratory syndrome coronavirus 2, UniProt P0DTD1); experiment: biochemical; type: biochemical; details: for M^pro Ki: 25 nM enzyme, 15 μM fluorescent peptide, Morrison equation, Inactive = less than 50% inhibition at 25 μM compound; for Ki,app: Table 5
[2] = Metabolic stability in mouse liver microsomes; type: in vitro ADME; details: 0.5 mg protein/mL, 2.0 μM compound, 1.0 mM NADPH
Description: (§1) The samples were collected at specific time-points 0, 30, and 60 min in duplicate. The reactions were terminated by adding an equivalent volume of ice-cold methanol and vortexed. […] Three μL of the supernatant was analyzed by UHPLC-Q Exactive Orbitrap MS (Thermo Fisher Scientific, USA) equipped with 50 mm×4.6 mm column (XDB C-18, Agilent Technologies, USA). The column temperature was maintained at 40° C. The flow rate was at 0.3 mL/min with a 30% mobile phase (acetonitrile containing 0.1% formic acid). Q Exactive MS was operated in positive mode with electrospray ionization. Ultra-pure nitrogen was applied as the sheath (45 arbitrary unit), auxiliary (10 arbitrary unit), sweep (1.0 arbitrary unit) and the collision gas. […] MS data were acquired from 80 to 1,200 Da in profile mode.

[3] = Metabolic stability in human liver microsomes; type: in vitro ADME; details: 0.5 mg protein/mL, 2.0 μM compound, 1.0 mM NADPH
Description: as §1

Human Cathepsin B = target: T1, Human Cathepsin B (Homo sapiens, UniProt P07858); experiment: Cathepsin B assay; type: biochemical
T1 construct: purchased BPS Bioscience 79590
Description: A kit from BPS Bioscience (#79590) was used with adjustments to the manufacturer's protocol as follows: The activated enzyme was diluted 250-fold just before use, and the reaction was run at RT in black 96 half-area plates in a total reaction volume of 50 uL containing 0.01% Tween-20. Instead of measuring endpoints at 60 min the increase in fluorescence (Ex 360 nm, Em 460 nm) per second (RFU/s) was obtained from linear progress curves over 10 min. Fractional activities were calculated from reactions with no inhibitors. E-64 was used as a positive control.

[4] = Apparent solubility in PBS buffer; details: for solubility: PBS buffer with 2% DMSO, aqueous buffer, kinetic from dmso stock
HOVPro-Gii.4 = experiment: Thermal shift, HOVPro-Gii.4; type: binding; details: 50 µM
HOVPro-Gi.1 = target: T2, HOVPro-Gi.1 (Norovirus, UniProt Q83883); experiment: Thermal shift, HOVPro-Gi.1; type: binding; details: 50 µM
T2 construct: HOVPro-Gi.1
T2 sequence (Q83883 1101-1281): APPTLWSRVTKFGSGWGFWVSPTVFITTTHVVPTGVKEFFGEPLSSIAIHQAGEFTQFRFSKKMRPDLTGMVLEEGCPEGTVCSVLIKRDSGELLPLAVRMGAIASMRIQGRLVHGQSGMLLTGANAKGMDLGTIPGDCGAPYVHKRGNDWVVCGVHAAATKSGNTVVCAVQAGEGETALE

human thrombin = target: T3, human thrombin (Homo sapiens, UniProt P00734); experiment: Thrombin fluorescence assay; type: biochemical; details: fluorescence assay
T3 construct: purchased Sigma-Aldrich MAK243

[5] = target: SARS-CoV-2 main protease (M^pro) (Severe acute respiratory syndrome coronavirus 2, UniProt P0DTD1); experiment: Protein thermal shift stability assay (SYPRO Orange); type: binding; details: 50 μM compound; […]; 50 µM
[6] = tested on: SARS-COV-2 (USA_WA1/2020 isolate) in VERO E6 cells; experiment: Real-Time Cell Analysis (RTCA) assay of SARS-COV-2 replication; type: cell-based; details: VERO E6 cells, 75 h
[7] = 25 nM enzyme, 15 μM fluorescent peptide, Morrison equation, Inactive = less than 50% inhibition at 25 μM compound
[8] = Table 3, column b (footnote not given), read-out: Kiapp (nM)^b
[9] = Table 3, column a (footnote not given), read-out: Kiapp (nM)^a
[10] = Ki, app towards SARS-CoV-2 M^pro, athentic termini, authentic termini
[11] = Kiapp (nM)^b, Table 3, column b (footnote not given)
[12] = Table 3, column a (footnote not given)
[13] = Table 3, column b (footnote not given)

COC(=O)c1cc(-c2cccc3[nH]ncc23)cc(OC)c1OCC(=O)N(C)C [CDD-1982]
M^pro-His Ki (SARS-COV-2 M^pro-His6; [7]): Inactive
M^pro Ki [1]: Inactive

CCC[C@H](NC(=O)c1cccc2nc(-c3cncc4ccccc34)n(CCCC(=O)NC)c12)c1ccc(C)cc1 [CDD-1934]
Ki [1, 8]: 27.4 ± 2.4 nM

Cc1nnc2n1-c1ccc(Cl)cc1C(c1ccccc1)=NC2 [Alprazolam, reference compound]
MLM t1/2 (half-life) [2]: 296
HLM t1/2 (half-life) [3]: 832

CCC[C@H](NC(=O)c1cccc2nc(-c3cncc4ccccc34)n([C@H]3C[C@H](C(=O)NC)C3)c12)c1cccc(C(F)(F)F)c1 [CDD-1795]
Human Cathepsin B, Fractional Remaining Activity (Human Cathepsin B): 1.07
Ki (SARS-COV-2 M^pro-His6; [9]): 29.4 ± 4.3 nM
Ki [1, 10]: 35.2 nM
Ki [1, 11]: 35.2 ± 4.9 nM
solubility [4]: 50.4 µM (≈ 30.2 µg/mL)

COc1cc(-c2cccc3[nH]ncc23)cc(C(=O)CO)c1OCC(=O)N(C)C [CDD-1886]
Ki (SARS-COV-2 M^pro-His6; 25 nM enzyme, 15 μM fluorescent peptide, Morrison equation, Inactive = less than 50% inhibition at 25 μM compound, read-out: M^pro-His Ki): 15700 ± 1200 nM
decrease of M^pro inhibition relative to CDD-1713 [1]: greater than 100 fold
Ki ([1]; read-out: M^pro Ki): 21200 ± 1500 nM

CCCC(NC(=O)c1cccc2nc(-c3cncc4ccccc34)n([C@H]3C[C@H](C(=O)NC)C3)c12)c1ccc(C(F)(F)F)cc1 (some centres unmarked) [CDD-1732]
ΔTm of HOVPro-Gii.4 at 50 μM compound conc. (HOVPro-Gii.4): −1.24 °C
ΔTm of HOVPro-Gi.1 at 50 μM compound conc. (HOVPro-Gi.1): −0.82 °C
Thrombin inhibition (human thrombin): None
ΔTm of Mpro at 50 μM compound conc. [5]: 0.61 °C
Measured apparent solubility in PBS buffer (2% DMSO) ([4]; PBS buffer, 2% DMSO): 26.9 µM

CNC(=O)CCCn1c(-c2cnccc2C)nc2cccc(C(=O)N[C@@H](C)c3ccc4ccccc4c3)c21 [CDD-1924]
Ki [1, 8]: 426 ± 46.4 nM

COc1cc(-c2cccc3[nH]ncc23)cc(C(C)=O)c1OCC(=O)N(C)C [CDD-1883]
M^pro-His Ki (SARS-COV-2 M^pro-His6; [7]): Inactive
M^pro Ki [1]: Inactive

COc1cc(-c2cccc3[nH]ncc23)ccc1OCC(=O)N(C)C [CDD-1793, 2-(4-(1H-indazol-4-yl)-2-methoxyphenoxy)-N,N-dimethylacetamide]
M^pro-His Ki (SARS-COV-2 M^pro-His6; [7]): Inactive
M^pro inhibition (in words) [1]: completely abolished the activity
M^pro Ki [1]: Inactive
Ki,app [1]: Inactive

COc1cc(-c2cccc3c2cnn3C)cc(C=O)c1OCC(=O)N(C)C [CDD-1847, 2-(2-formyl-6-methoxy-4-(1-methyl-1H-indazol-4-yl)phenoxy)-N,N-dimethylacetamide]
M^pro-His Ki (SARS-COV-2 M^pro-His6; [7]): Inactive
M^pro inhibition (in words) [1]: completely lost activity
M^pro Ki [1]: Inactive
prevention of SARS-COV-2 induced cell death (in words) [6]: unable to prevent cell death

CNC(=O)CCCn1c(-c2cccc3ccccc23)nc2cccc(C(=O)N[C@@H](C)c3ccc4ccccc4c3)c21 [CDD-1885]
Kiapp (nM)^a (SARS-COV-2 M^pro-His6; [12]): Inactive
Kiapp (nM)^b [1, 13]: Inactive

CCC[C@H](NC(=O)c1cccc2nc(-c3cncc4ccccc34)n([C@H]3CC[C@H](C(=O)NC)C3)c12)c1ccc(C(F)(F)F)cc1 [CDD-1790]
Ki (SARS-COV-2 M^pro-His6; [9]): 621 ± 46 nM
Ki [1, 10]: 663 nM
Ki [1, 8]: 663 ± 66 nM
solubility [4]: 52.1 µM (≈ 32 µg/mL)

CNC(=O)CCCn1c(-c2cncc3ccccc23)nc2cccc(C(=O)NCc3ccc4ccccc4c3)c21 [CDD-1925]
Ki (SARS-COV-2 M^pro-His6; [9]): 51.3 ± 7.5 nM
Ki [1, 8]: 42.5 nM

CCC[C@H](NC(=O)c1cccc2nc(-c3cncc4ccccc34)n(CCCC(=O)NC)c12)c1ccc(C(F)(F)F)cc1 [CDD-1830]
Ki (SARS-COV-2 M^pro-His6; [9]): 5.6 ± 0.5 nM
Ki [1, 8]: 6.5 ± 1 nM

CNC(=O)[C@H]1C[C@H](n2c(-c3cncc4ccccc34)nc3cccc(C(=O)N[C@@H](C)c4ccccc4)c32)C1 [CDD-1841]
Ki (SARS-COV-2 M^pro-His6; [9]): 571 ± 72.7 nM
Ki [1, 8]: 565 ± 55.3 nM

CCC[C@H](NC(=O)c1cccc2nc(-c3cncc4ccccc34)n(C3CCC3)c12)c1ccc(C(F)(F)F)cc1 [CDD-1806]
Human Cathepsin B, Fractional Remaining Activity (Human Cathepsin B): 0.94
Ki (SARS-COV-2 M^pro-His6): 165 ± 12.9 nM
Ki [1, 10]: 137 nM
Ki [1, 11]: 137 ± 11.6 nM
solubility [4]: 0.1 µM (≈ 0.0543 µg/mL)

CCC[C@H](NC(=O)c1cccc2nc(-c3cncc4ccccc34)n([C@H]3C[C@H](C(=O)NC)C3)c12)c1ccccc1 [CDD-1843]
Kiapp (nM)^a (SARS-COV-2 M^pro-His6; [12]): Inactive
Kiapp (nM)^b [1, 13]: Inactive

COc1cc(-c2cccc3[nH]ncc23)cc(CO)c1OCC(=O)N(C)C [CDD-1776]
M^pro-His Ki (SARS-COV-2 M^pro-His6; [7]): Inactive
M^pro inhibition (in words) [1]: completely abolished the activity
M^pro Ki [1]: Inactive
Ki,app [1]: Inactive

CNC(=O)CCCn1c(-c2ccc(N)nc2)nc2cccc(C(=O)N[C@@H](C)c3ccc4ccccc4c3)c21 [CDD-1926]
Kiapp (nM)^a (SARS-COV-2 M^pro-His6; [12]): Inactive
Kiapp (nM)^b [1, 13]: Inactive

CN(C)C(=O)COc1ccc(-c2cccc3[nH]ncc23)cc1C#N [CDD-2038]
M^pro-His Ki (SARS-COV-2 M^pro-His6; [7]): Inactive
M^pro Ki [1]: Inactive

CNC(=O)CCCn1c(-c2ccc3cnccc3c2)nc2cccc(C(=O)N[C@@H](C)c3ccc4ccccc4c3)c21 [CDD-1884]
Kiapp (nM)^a (SARS-COV-2 M^pro-His6; [12]): Inactive
Kiapp (nM)^b [1, 13]: Inactive

CNC(=O)CCCn1c(-c2ccc3cccnc3n2)nc2cccc(C(=O)N[C@@H](C)c3ccc4ccccc4c3)c21 [CDD-1905]
Kiapp (nM)^a (SARS-COV-2 M^pro-His6; [12]): Inactive
Kiapp (nM)^b [1, 13]: Inactive

O=C1CCOc2ccc(-c3cccc4[nH]ncc34)cc21 [CDD-2037]
M^pro-His Ki (SARS-COV-2 M^pro-His6; [7]): Inactive
M^pro Ki [1]: Inactive

CCC[C@H](NC(=O)c1cccc2nc(-c3cncc4ccccc34)n(C3CCNCC3)c12)c1ccc(C(F)(F)F)cc1 [CDD-1818]
Ki (SARS-COV-2 M^pro-His6; [9]): 1470 ± 152 nM
Ki [1, 8]: 1710 ± 128 nM

CCC[C@H](NC(=O)c1cccc2nc(-c3cccnc3)n([C@H]3C[C@H](C(=O)NC)C3)c12)c1ccc(C(F)(F)F)cc1 [CDD-1831]
Kiapp (nM)^a (SARS-COV-2 M^pro-His6): Inactive
Kiapp (nM)^b [1]: Inactive

CCC[C@H](NC(=O)c1cccc2nc(-c3cncc4ccccc34)n(C(C)C)c12)c1ccc(C(F)(F)F)cc1 [CDD-1804]
Kiapp (nM)^a (SARS-COV-2 M^pro-His6; [12]): Inactive
Kiapp (nM)^b [1, 13]: Inactive

CNC(=O)[C@H]1C[C@H](n2c(-c3cncc4ccccc34)nc3cccc(C(=O)NC(C)C)c32)C1 [CDD-1842]
Kiapp (nM)^a (SARS-COV-2 M^pro-His6): Inactive
Kiapp (nM)^b [1]: Inactive

CNC(=O)[C@H]1C[C@H](n2c(-c3cncc4ccccc34)nc3cccc(C(=O)NC(C)c4ccc(C(F)(F)F)cc4)c32)C1 (some centres unmarked) [CDD-1829]
Ki (SARS-COV-2 M^pro-His6; [9]): 45.7 ± 3.7 nM
Ki [1, 8]: 47.9 ± 4.7 nM

C[C@H](NC(=O)c1cccc2nc(-c3cncc4ccccc34)n(CCCC(=O)O)c12)c1ccc2ccccc2c1 [CDD-1972]
Ki [1, 8]: 87.9 ± 8.4 nM

CNC(=O)CCCn1c(-c2ccnc3ccccc23)nc2cccc(C(=O)N[C@@H](C)c3ccc4ccccc4c3)c21 [CDD-1906]
Kiapp (nM)^a (SARS-COV-2 M^pro-His6; [12]): Inactive
Kiapp (nM)^b [1, 13]: Inactive

CCOC(=O)/C=C/c1cc(-c2cccc3[nH]ncc23)cc(OC)c1OCC(=O)N(C)C [CDD-1971]
M^pro-His Ki (SARS-COV-2 M^pro-His6; [7]): Inactive
M^pro Ki [1]: Inactive
